Columns and labels:
[1] = target: T1, human GPR119 (Homo sapiens, UniProt Q8TDV5); experiment: DiscoverX PathHunter β-arrestin cell assay (U2OS hGPR119 β-arrestin cell line); assay type: cell-based; conditions: U2OS hGPR119 β-arrestin cells; each line is a separate determination; read-out: Human B-arrestin Functional EC50
T1 construct: host or cells: U2OS hGPR119 β-arrestin cell line
Protocol: GPR119 agonist activity was also determined with a cell-based assay utilizing DiscoverX PathHunter β-arrestin cell assay technology and their U2OS hGPR119 β-arrestin cell line (DiscoverX Cat #93-0356 C3). In this assay, agonist activation is determined by measuring agonist-induced interaction of β-arrestin with activated GPR119. A small, 42 amino acid enzyme fragment, called ProLink was appended to the C-terminus of GPR119. Arrestin was fused to the larger enzyme fragment, termed EA (Enzyme Acceptor). […]
After 16 hours (overnight) the assay plates were removed from the incubator and varying concentrations of each compound to be tested (diluted in assay buffer (1×HBSS+CaCl2+MgCl2 (Gibco Cat #14025-092), 20 mM HEPES pH 7.0 (Gibco Cat #15630-080) and 0.1% BSA (Sigma Cat # A9576)) were added to the assay plate wells in a volume of 5 microliters (final DMSO concentration was 0.5%). After a 90 minute incubation at 37 degrees Celsius in a humidified environment in 5% carbon dioxide, 12 microliters of Galacton Star β-galactosidase substrate (PathHunter Detection Kit (DiscoveRx Cat #93-0001); prepared as described in the manufacturers assay protocol) was added to each well of the assay plate. The plates were incubated at room temperature and after 60 minutes, changes in the luminescence were read with an Envision 2104 multilabel plate reader at 0.1 seconds per well. […]
T1 sequence (P32121 whole entry partner, one chain of several): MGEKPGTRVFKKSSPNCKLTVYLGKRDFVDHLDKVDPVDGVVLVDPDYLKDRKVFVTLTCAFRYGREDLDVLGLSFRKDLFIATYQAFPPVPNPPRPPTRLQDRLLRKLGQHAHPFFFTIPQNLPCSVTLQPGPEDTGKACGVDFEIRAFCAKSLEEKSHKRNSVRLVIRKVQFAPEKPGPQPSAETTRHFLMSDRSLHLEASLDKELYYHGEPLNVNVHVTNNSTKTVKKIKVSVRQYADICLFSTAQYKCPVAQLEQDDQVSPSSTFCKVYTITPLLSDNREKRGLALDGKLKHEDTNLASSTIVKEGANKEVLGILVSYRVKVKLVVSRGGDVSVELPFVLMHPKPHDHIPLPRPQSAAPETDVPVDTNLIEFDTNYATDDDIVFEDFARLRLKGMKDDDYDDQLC

[2] = target: T2, human GPR119 (Homo sapiens, UniProt Q8TDV5); experiment: β-lactamase reporter functional assay for GPR119 agonists (hGPR119 HEK293-CRE beta-lactamase cells); assay type: cell-based; design: host or cells: hGPR119-HEK293-CRE-beta-lactamase cells; conditions: hGPR119 HEK293-CRE beta-lactamase cells; each line is a separate determination; read-out: Human B-lactamase Functional EC50
T2 sequence (Q8TDV5 1-335): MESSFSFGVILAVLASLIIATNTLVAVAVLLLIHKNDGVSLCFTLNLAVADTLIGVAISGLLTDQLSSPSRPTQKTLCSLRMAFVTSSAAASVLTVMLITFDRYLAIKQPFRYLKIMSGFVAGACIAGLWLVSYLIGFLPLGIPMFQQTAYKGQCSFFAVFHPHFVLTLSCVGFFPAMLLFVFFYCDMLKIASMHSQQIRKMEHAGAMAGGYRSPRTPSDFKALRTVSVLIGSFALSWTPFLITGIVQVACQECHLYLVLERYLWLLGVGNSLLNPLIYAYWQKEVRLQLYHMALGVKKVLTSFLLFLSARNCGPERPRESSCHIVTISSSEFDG
Protocol: The assay for GPR119 agonists utilizes a cell-based (hGPR119HEK293-CRE beta-lactamase) reporter construct where agonist activation of human GPR119 is coupled to beta-lactamase production via a cyclic AMP response element (CRE). GPR119 activity is then measured utilizing a FRET-enabled beta-lactamase substrate, CCF4-AM (Live Blazer FRET-B/G Loading kit, Invitrogen cat #K1027). […] Fluorescence was measured on an EnVision fluorimetric plate reader, excitation 405 nm, emission 460 nm/535 nm. EC50 determinations were made from agonist-response curves analyzed with a curve fitting program using a 4-parameter logistic dose-response equation.

EC50 [1] | EC50 [2] | Compound
3.79 nM |  | Cc1c(O[C@@H]2[C@@H]3COC[C@H]2CN(C(=O)OC2(C)CC2)C3)ncnc1N1CCc2ncccc21 [Example 28, 1-Methylcyclopropyl (9-syn)-9-{[6-(2,3-dihydro-1H-pyrrolo[3,2-b]pyridin-1-yl)-5-methylpyrimidin-4-yl]oxy}-3-oxa-7-azabicyclo[3.3.1]nonane-7-carboxylate]
37 nM | 64.7 nM | Cc1c(O[C@@H]2[C@@H]3COC[C@H]2CN(C(=O)OC(C)C)C3)ncnc1N1CCc2cc(S(C)(=O)=O)ccc21 [Example 23, Isopropyl (9-syn)-9-({5-methyl-6-[5-(methylsulfonyl)-2,3-dihydro-1H-indol-1-yl]pyrimidin-4-yl}oxy)-3-oxa-7-azabicyclo[3.3.1]nonane-7-carboxylate]

From patent publication US20120052130A1, “GPR 119 MODULATORS” (Pfizer Inc., priority 2009, published 2012)
